Some test systems named below: CCRF-CEM leukemia; COLO 205 colon; DU-145 prostate; NCI-H23 lung; NCI-H460 lung; OVCAR-5 ovarian; RXF 393 renal; SN12C renal; U251 CNS.
Common to all, as to experiment: growth of human tumour cells (NCI), 48 h

For ten compounds, GI50 and TGI results are on record in PubChem BioAssay (NCI).

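These data come from cells grown in 96-well plates and exposed to compound for 48 hours at five concentrations. At the GI50, growth is halved. TGI denotes the concentration required for complete inhibition of growth.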 Some results are limits rather than exact numbers.

Regarding `COc1ccc(C#Cc2ccccc2C#CCCCCO)cc1`, the GI50 was 23.5 µM in the assay with CCRF-CEM leukemia; 17.6 µM with COLO 205 colon; 21.3 µM in the assay on DU-145 prostate; 19.2 µM in the assay with NCI-H23 lung; 19.4 µM with NCI-H460 lung; 18.7 µM in the assay on OVCAR-5 ovarian. Besides, the GI50 with RXF 393 renal is 16 µM; in the assay with SN12C renal it was 11 µM; in the assay on U251 CNS it was 12.7 µM. Further, the TGI stood at 53.8 µM with CCRF-CEM leukemia; 33.4 µM with COLO 205 colon; 52.6 µM in the assay with DU-145 prostate; 40.5 µM with NCI-H23 lung; 39.9 µM in the assay with NCI-H460 lung; 37.6 µM in the assay with OVCAR-5 ovarian. Besides, the TGI in the assay on RXF 393 renal worked out at 33.6 µM; in the assay with SN12C renal, 23.7 µM; in the assay with U251 CNS, 25.3 µM.
Turning to `C=C(Cn1c(=O)c2ccccc2c2ccccc21)c1ccc(C(=O)Nc2ccccc2N)cc1`, the GI50 is 0.466 µM with CCRF-CEM leukemia; 45.1 µM with COLO 205 colon; above 45.9 µM with DU-145 prostate; 30.3 µM in the assay on NCI-H23 lung; 21.3 µM in the assay on NCI-H460 lung; above 100 µM in the assay with OVCAR-5 ovarian. Also, the GI50 with RXF 393 renal is 5.21 µM; in the assay on SN12C renal, 11.3 µM; with U251 CNS it was 16.3 µM. Also, the TGI was 4.13 µM with CCRF-CEM leukemia; above 100 µM in the assay on COLO 205 colon; above 100 µM with DU-145 prostate; above 100 µM in the assay on NCI-H23 lung; above 100 µM in the assay with NCI-H460 lung; above 100 µM with OVCAR-5 ovarian. In addition, the TGI with RXF 393 renal is above 68.5 µM; in the assay with SN12C renal, above 100 µM; with U251 CNS it was above 100 µM.
For `CN1C(=O)c2c(ccc3c2OCO3)C2C(O)Cc3cc4c(cc3C21)OCO4` (stereo not given), the TGI was 9.74 µM with CCRF-CEM leukemia; 14.4 µM in the assay on COLO 205 colon; 43.1 µM in the assay with DU-145 prostate; above 100 µM in the assay with NCI-H23 lung; above 100 µM in the assay with NCI-H460 lung; above 100 µM in the assay on OVCAR-5 ovarian. Moreover, the TGI in the assay on SN12C renal and with U251 CNS was above 100 µM in each case.
As for `O=P([O-])(O)OP(=O)([O-])O.[NH-][C@H]1CCCC[C@@H]1[NH-].[OH-].[OH-].[Pt+4]`, the GI50 in the assay on CCRF-CEM leukemia is above 100 µM; in the assay on COLO 205 colon it was 88.2 µM; with DU-145 prostate, 33.3 µM; with NCI-H23 lung, 20.8 µM; in the assay with NCI-H460 lung, 34.5 µM; in the assay with OVCAR-5 ovarian, 26.3 µM. Further, the values for the GI50 in the assay on RXF 393 renal, with SN12C renal and in the assay on U251 CNS were 17.6 µM, 29.2 µM and 17.2 µM, respectively. In addition, the TGI is above 100 µM with CCRF-CEM leukemia; above 100 µM in the assay with COLO 205 colon; above 100 µM in the assay on DU-145 prostate; 46.1 µM in the assay on NCI-H23 lung; above 100 µM in the assay on NCI-H460 lung; 63.2 µM in the assay on OVCAR-5 ovarian. Moreover, the TGI was found to be 36.1 µM in the assay with RXF 393 renal, 87.9 µM in the assay on SN12C renal and 33.8 µM with U251 CNS.
Consider `Cc1cccc(C(=O)c2cccc3ccccc23)c1C(=O)O`, for which the TGI in the assay on CCRF-CEM leukemia was above 100 µM; with COLO 205 colon, 80 µM; in the assay on NCI-H23 lung it was above 100 µM; with NCI-H460 lung, above 100 µM; in the assay on OVCAR-5 ovarian, above 100 µM; with RXF 393 renal it was above 100 µM. For the same compound, the TGI in the assay on SN12C renal and with U251 CNS was above 100 µM throughout.
Regarding `O=C(/C=C/c1ccc(B(O)O)cc1)/C=C/c1ccc(B(O)O)cc1`, the GI50 in the assay on CCRF-CEM leukemia is 2.86 µM; in the assay on COLO 205 colon, 2.21 µM; in the assay with DU-145 prostate, 4.63 µM; in the assay with NCI-H23 lung, 2.85 µM; in the assay with NCI-H460 lung it was 8.19 µM; with OVCAR-5 ovarian, 4.4 µM. The values for the GI50 in the assay with RXF 393 renal, in the assay on SN12C renal and with U251 CNS were 1.7 µM, 3.22 µM and 2.82 µM, respectively. Also, the TGI in the assay with CCRF-CEM leukemia amounted to 9.58 µM; in the assay on COLO 205 colon, 4.83 µM; in the assay on DU-145 prostate it was 14.9 µM; in the assay with NCI-H23 lung, 8.69 µM; in the assay with NCI-H460 lung, 23.6 µM; with OVCAR-5 ovarian, 20.3 µM. Also, the values for the TGI in the assay with RXF 393 renal, with SN12C renal and in the assay with U251 CNS were 3.45 µM, 13.9 µM and 10.4 µM, respectively.
For the compound `COc1cc2c(cc1O)C=NCC2`, the TGI in the assay with CCRF-CEM leukemia, in the assay with COLO 205 colon, in the assay with NCI-H23 lung, in the assay with NCI-H460 lung, with OVCAR-5 ovarian and with SN12C renal was above 100 µM each time. In the assay on U251 CNS, this compound displayed a TGI above 100 µM.
Consider `CC(C)(C)OC(=O)NCCNC1=CC(=O)c2nc3ccccc3c3ccnc1c23`, for which the GI50 with COLO 205 colon is 12.7 µM; with DU-145 prostate it was 22.7 µM; with NCI-H23 lung it was 17.1 µM; in the assay with NCI-H460 lung it was 15.2 µM; in the assay with OVCAR-5 ovarian, 28 µM; with SN12C renal it was 17.7 µM. Moreover, in the assay with U251 CNS, the GI50 was 18.8 µM. Besides, the TGI in the assay with COLO 205 colon was 34.7 µM; in the assay with DU-145 prostate it was 80.9 µM; in the assay on NCI-H23 lung, 46.8 µM; in the assay on NCI-H460 lung, 43.1 µM; with OVCAR-5 ovarian, 86.1 µM; with SN12C renal it was 55.6 µM. In addition, the TGI in the assay with U251 CNS was 65 µM.
Turning to `O=[N+]([O-])c1ccc(Nc2ccccc2-c2ccccc2)c2nonc12`, the GI50 with CCRF-CEM leukemia is 15.6 µM; with COLO 205 colon it was 18.6 µM; in the assay on DU-145 prostate, 28.2 µM; in the assay with NCI-H23 lung, 8.63 µM; in the assay with NCI-H460 lung, 13.1 µM; with OVCAR-5 ovarian, 22.4 µM. Further, the figures for the GI50 with RXF 393 renal, in the assay on SN12C renal and with U251 CNS were 13.7 µM, 12.4 µM and 13.4 µM, respectively. The TGI was above 72.2 µM in the assay with CCRF-CEM leukemia; 45.2 µM in the assay on COLO 205 colon; above 100 µM with DU-145 prostate; 26.1 µM with NCI-H23 lung; 42.3 µM in the assay on NCI-H460 lung; 62.9 µM with OVCAR-5 ovarian. In addition, the TGI in the assay on RXF 393 renal was determined as 28.7 µM; with SN12C renal, 28.2 µM; in the assay on U251 CNS, 29.3 µM.
With `C=CC(=O)Nc1ccc(Nc2nccc(-c3ccc(N4CCCC4)c(C#N)c3)n2)cc1`, the GI50 in the assay on CCRF-CEM leukemia was 13.8 µM; in the assay with COLO 205 colon, above 25 µM; in the assay on DU-145 prostate, 14.1 µM; in the assay with NCI-H23 lung, above 25 µM; with NCI-H460 lung, 4.61 µM; in the assay on OVCAR-5 ovarian, above 25 µM. Moreover, the GI50 in the assay on RXF 393 renal was 0.545 µM; in the assay with SN12C renal, 15.8 µM; with U251 CNS, 15.4 µM. For the same compound, the TGI with CCRF-CEM leukemia, with COLO 205 colon, with DU-145 prostate, with NCI-H23 lung, with NCI-H460 lung and in the assay on OVCAR-5 ovarian was above 25 µM each time. Also, the figures for the TGI in the assay with RXF 393 renal, in the assay with SN12C renal and in the assay on U251 CNS were 1.71 µM, above 25 µM and above 25 µM, respectively.
